Structures are written as SMILES.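 Exposure lasted 48 hours, with cells grown in 96-well plates and compounds tested at five concentrations. GI50 is the concentration that inhibits growth by half.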 The source made the active and inactive calls. Cut-off read from the data, not from the text of the source: active = GI50 up to about 1.1 µM and inactive = higher.

Experimental findings from ChEMBL document CHEMBL1201862, “PubChem BioAssay data set” (2004) are described below.

What all share (assay): NCI anticancer screen, dose series, 48 h
The test system of test [1] is DMS-114.
Test [2] relates to SNB-78.
Test [3] concerns RXF 631.
Test [4] relates to XF498.
The subject of test [5] is LXFL 529.
The subject of test [6] is DMS-273.
For test [7], the system named is M19-MEL.
In test [8] the test system is DLD-1.
The subject of test [9] is HOP-18.

Regarding `N=c1oc2cc(O)c(O)cc2cc1C(N)=O`, the GI50 in test [1], in test [2], in test [3], in test [4], in [5] and in test [6] was > 100 µM (inactive) throughout. The GI50 in [7] and in [8] was > 100 µM (inactive) in each case.

Turning to `CC(=O)c1ccc2c(c1)c1c(C)c3c[n+](C)ccc3c(C)c1n2C`, the GI50 in [1] is 2.14 µM (inactive); in test [2], 4.53 µM (inactive); in [4], 2.53 µM (inactive); in test [6], 2.39 µM (inactive); in test [7], 4.79 µM (inactive); in [8], 4.56 µM (inactive). Further, in test [9], the GI50 was 17.2 µM (inactive).

For `Cc1nc(N)nn1C1OCC(O)C(O)C1O` (stereo unspecified), the GI50 in test [1], in [2], in test [4], in test [5], in test [6] and in test [8] was > 100 µM (inactive) in each case.

For `C/C(=C\c1ccccc1)C(O)C(=O)c1nc2ccc(Cl)cc2nc1O` (stereo unspecified), the GI50 is 46.3 µM (inactive) in test [1]; > 100 µM (inactive) in test [2]; 92 µM (inactive) in [4]; 84.5 µM (inactive) in [5]; > 100 µM (inactive) in test [6]; > 100 µM (inactive) in test [7]. In addition, in test [8], the GI50 is > 100 µM (inactive).

As for `COc1ccc(C2=CC3CCC2C3)cc1` (stereo unspecified), the GI50 is > 100 µM (inactive) in [2]; > 100 µM (inactive) in [4]; 0.0535 µM (active) in test [5]; > 100 µM (inactive) in test [6]; > 100 µM (inactive) in [8]; > 100 µM (inactive) in [9].

Consider `Cc1nc(-c2nc([N+](=O)[O-])c([N+](=O)[O-])[nH]2)cs1`, for which the GI50 in test [1], in [2], in [3], in [4], in test [5] and in [6] was > 100 µM (inactive) in each case. Besides, the GI50 in test [7] and in test [8] was > 100 µM (inactive) throughout.

`COc1cc([C@@H]2c3cc4c(cc3[C@@H](NC(=O)c3cccc(N)c3)C3COC(=O)[C@@H]32)OCO4)cc(OC)c1O` (stereo partly specified): the GI50 in test [1] was 0.968 µM (active); in test [2] it was 3.92 µM (inactive); in test [3] it was 0.412 µM (active); in test [4], 1.11 µM (active); in test [5], 13.1 µM (inactive); in test [6], 0.117 µM (active). The GI50 in test [7] was 3.41 µM (inactive); in [8] it was 7.03 µM (inactive).

On to `O=C(c1ccccc1)c1c(CC(O)c2cccnc2)n(C(=O)c2ccccc2)c2ccccc12` (stereo unspecified), for which the GI50 in [1] was 27.7 µM (inactive); in test [4], 13.6 µM (inactive); in test [6], 28.2 µM (inactive); in test [7], 19.7 µM (inactive).

Consider `C[N+](C)(C)CC1CCc2ccccc2C1=O` (stereo unspecified), for which the GI50 in [1] was 13.5 µM (inactive); in test [2], 23.4 µM (inactive); in [4], 2.39 µM (inactive); in test [5] it was 2.57 µM (inactive); in [6], 2.16 µM (inactive); in test [7], 16 µM (inactive). Further, the GI50 in [8] is 4.86 µM (inactive).

As for `COc1cccc(-c2nccc3c(OCc4ccccc4)c(OC)c(OC)cc23)c1`, the GI50 in test [1] was 35.6 µM (inactive); in test [2] it was 63.1 µM (inactive); in test [4], > 100 µM (inactive); in [5], 5.74 µM (inactive); in test [6], 27.2 µM (inactive); in test [7], > 100 µM (inactive). In test [8], the GI50 is 7.74 µM (inactive).

Turning to `O=C(O)C1Cc2[nH]c3ccccc3c2C2CCCC12` (stereo unspecified), the GI50 in test [1], in test [2], in test [4], in test [5], in test [6] and in test [7] was > 100 µM (inactive) in each case. Besides, in [8], the GI50 is > 100 µM (inactive).

Take `COc1ccc(C)cc1C1CCC(=O)O1` (stereo unspecified): the GI50 in [1] is > 100 µM (inactive); in test [2], > 100 µM (inactive); in test [4] it was 63.8 µM (inactive); in test [5], > 100 µM (inactive); in test [6] it was > 100 µM (inactive); in test [7], > 100 µM (inactive). For the same compound, the GI50 in [8] and in test [9] was > 100 µM (inactive) in each case.

Take `CC(=O)NNc1nc(C)c(C(=O)NNC(=O)C(=O)Nc2ccc(Cl)cc2)s1`: the GI50 in test [2] was > 100 µM (inactive); in test [4] it was > 100 µM (inactive); in [5], 34.7 µM (inactive); in test [7], > 100 µM (inactive).

Consider `CCCn1cc2c(SC)nc(SC)nc2n1`, for which the GI50 in test [1], in test [2], in [4], in test [6], in [8] and in test [9] was > 100 µM (inactive) throughout.

On to `C1=CC(=NN=P(c2ccccc2)(c2ccccc2)c2ccccc2)C=C1`, for which the GI50 in [1] is 51.9 µM (inactive); in test [4], > 100 µM (inactive); in test [5], > 100 µM (inactive); in test [6], > 100 µM (inactive); in test [7], > 100 µM (inactive); in test [8], > 100 µM (inactive).

Regarding `CN(C)/C(=N\C#N)N(Cc1ccccc1)Cc1ccccc1`, the GI50 is > 100 µM (inactive) in test [2]; 56.5 µM (inactive) in test [5]; > 100 µM (inactive) in test [6]; > 100 µM (inactive) in test [7]; 43.2 µM (inactive) in test [8]; > 100 µM (inactive) in test [9].

Regarding `Nc1ccc(/N=N/c2ccc(/C=C/c3ccc(/N=N/c4ccc(N)c5ccc(S(=O)(=O)O)cc45)cc3S(=O)(=O)O)c(S(=O)(=O)O)c2)c2cc(S(=O)(=O)O)ccc12`, the GI50 in test [1] is > 100 µM (inactive); in test [2] it was > 100 µM (inactive); in test [4] it was > 62.2 µM (inactive); in test [6], > 88.1 µM (inactive); in test [7] it was > 100 µM (inactive); in [8] it was > 100 µM (inactive). In addition, the GI50 in [9] was > 100 µM (inactive).

Regarding `c1ccc(N2N=C(c3ccco3)CC2c2ccco2)cc1` (stereo unspecified), the GI50 in test [1] was 49.2 µM (inactive); in [2], > 100 µM (inactive); in [4] it was > 100 µM (inactive); in test [5], 64.1 µM (inactive); in test [6], > 100 µM (inactive); in test [7] it was > 100 µM (inactive).

`COCC1N=C(c2ccc(OC)c(OCc3ccccc3)c2OC)O[C@H]1c1ccccc1` (stereo partly specified): the GI50 is 12.2 µM (inactive) in test [1]; 29.1 µM (inactive) in test [2]; 14.8 µM (inactive) in test [5]; 15.8 µM (inactive) in [6]; 17.4 µM (inactive) in test [7]; 20.6 µM (inactive) in test [8].

As to `CCCCCCCCCCCCCCCCCCOP(=O)([O-])OC1CC[N+](C)(C)CC1` [PERIFOSINE], the GI50 was 12.5 µM (inactive) in test [1]; 23.4 µM (inactive) in test [2]; 15.7 µM (inactive) in [4]; 4.03 µM (inactive) in test [5]; 2.86 µM (inactive) in test [6]; 4.01 µM (inactive) in test [7]. The GI50 in test [8] is 10.4 µM (inactive).
